Source: US11260066B2, “Inhibiting reduction of lean body mass and inhibiting accumulation of liver fat by administering allulose” (SAMYANG CORPORATION, priority 2017, dated 2022)

Key:
[1] = Blood chemical test (Alkaline phosphatase, AST, ALT, γ-GTP), human application test; format: in vivo; details: for ALT(SGPT), Mean / ALT(SGPT), Median / AST(SGOT), Mean / AST(SGOT), Median / Alkaline phosphatase, Mean / Alkaline phosphatase, Median / γ-GTP, Mean / γ-GTP, Median: ITT 33, time point not given; for ALT, change at 12 weeks compared to the base time / Alkaline phosphatase, change at 12 weeks compared to the base time / γ-GTP, change at 12 weeks compared to the base time: increased in control
From the text: After conducting a screening test for those who heard the detailed description of the purpose and research method of the present example and agreed in writing as subjects, those who met the selection/exclusion criteria were selected. The specific selection criteria are as follows, and the final selected subjects are 99 men and women who are overweight or obese, and the demographic information of the selected subjects is shown in the following Table 1. Ninety nine (99) subjects were randomly assigned to the high-dose group, low-dose group or control group, with including 33 subjects in each test group. In three test groups, the products were mixed in 100 ml of water and were administered orally twice a day. As the daily dose for one test subject, 12 g allulose in the high-dose group, 6 g allulose and 6 g anhydrous glucose in the low-dose group, and 12 g anhydrous glucose in the control group were divided and provided twice a day. It was administered from the day after the random assignment day (0 day), and was taken with drinking water twice at morning and evening with meals for 12 weeks. (4) Blood chemical test result The test items performed at screening visit (visit1), visit2 and end visit (visit5) were Alkaline phosphatase, AST, ALT, and γ-GTP. In case of continuous data, for the average change compared to the base time, technical statistics (mean, standard deviation, median value, minimum value, maximum value) were proposed for the average change compared to the base time. The comparative statistic test for the three groups was performed using ANOVA or Kruscal-Wallis test by testing whether data were normally distributed. When there was a significant difference between the three groups, the multiple comparison was conducted through Tukey-Kramer method. In order to find out whether there was a difference in the mean change in a group, it was analyzed using Paired t-test or Wilcoxon's signed rank test. In case of categorical data, technical statistics (frequency, percentage) were proposed, and comparative statistic test was performed between three groups using Chi-square test or Fisher' exact test.

[2] = Liver CT: degree of fat deposition in the liver (HU of liver and spleen), human application test; format: in vivo; details: for Liver HU Mean, 12 W, Mean / Liver - Spleen HU (Liver minus Spleen), 12 W, Mean / Spleen HU Mean, 12 W, Mean: 12 weeks; for Liver HU Mean, 12 W, Mean / Liver HU Mean, Difference (12 W vs base line): ITT 33
From the text: After conducting a screening test for those who heard the detailed description of the purpose and research method of the present example and agreed in writing as subjects, those who met the selection/exclusion criteria were selected. The specific selection criteria are as follows, and the final selected subjects are 99 men and women who are overweight or obese, and the demographic information of the selected subjects is shown in the following Table 1. Ninety nine (99) subjects were randomly assigned to the high-dose group, low-dose group or control group, with including 33 subjects in each test group. In three test groups, the products were mixed in 100 ml of water and were administered orally twice a day. As the daily dose for one test subject, 12 g allulose in the high-dose group, 6 g allulose and 6 g anhydrous glucose in the low-dose group, and 12 g anhydrous glucose in the control group were divided and provided twice a day. It was administered from the day after the random assignment day (0 day), and was taken with drinking water twice at morning and evening with meals for 12 weeks. In order to evaluate the degree of fat deposition in the liver at the time of hospital visit 2 and visit 5, the HU of liver, HU of spleen, HU difference of liver and spleen (Liver minus Spleen), and HU ratio of liver and spleen (Ratio Between Liver and Spleen) after 12 weeks compared to the base time were measured. CT attenuation values (Hounsfield units) were measured in regions of interest (ROI) selected as a homogeneous place avoiding blood vessels in the right lobe of liver and spleen in one non-contrast-enhanced abdominal CT image including both liver and spleen three times, and the average value was taken as each CT attenuation number. Then, the size of each region of interest was designated equally as 120 mm^2. Through liver CT, for HU of liver, HU of spleen, HU difference of liver and spleen (Liver minus Spleen), and HU ratio of liver and spleen (Ratio Between Liver and Spleen) after 12 weeks, technical statistics (mean, standard deviation, median value, minimum value, maximum value) were proposed for the average change compared to the base time. The comparative statistic test for the three groups was performed using ANOVA or Kruscal-Wallis test by testing whether data were normally distributed. When there was a significant difference between the three groups, the multiple comparisons were conducted through Tukey-Kramer method. In order to find out whether there was a difference in the mean change in a group, it was analyzed using Paired t-test or Wilcoxon's signed rank test.

[3] = parameters: species or system human; details: in vivo
Procedure: Furthermore, the difference of the average change between the three groups at 12 weeks compared to the base time for the items was analyzed in the laboratory test.

[4] = parameters: species or system human; details: in vivo; remark: listed apart in the source
[5] = Glucose index test (FBS, Insulin, HbA1c) on collected blood, human application test; format: in vivo; details: for Glucose, 12 W, Mean / Glucose, 12 W, Median / HbA1, 12 W, Mean / HbA1, 12 W, Median / Insulin, 12 W, Mean / Insulin, 12 W, Median / Glucose, Difference (12 W vs baseline) / Insulin, Difference (12 W vs baseline): ITT 33
From the text: After conducting a screening test for those who heard the detailed description of the purpose and research method of the present example and agreed in writing as subjects, those who met the selection/exclusion criteria were selected. The specific selection criteria are as follows, and the final selected subjects are 99 men and women who are overweight or obese, and the demographic information of the selected subjects is shown in the following Table 1. Ninety nine (99) subjects were randomly assigned to the high-dose group, low-dose group or control group, with including 33 subjects in each test group. In three test groups, the products were mixed in 100 ml of water and were administered orally twice a day. As the daily dose for one test subject, 12 g allulose in the high-dose group, 6 g allulose and 6 g anhydrous glucose in the low-dose group, and 12 g anhydrous glucose in the control group were divided and provided twice a day. It was administered from the day after the random assignment day (0 day), and was taken with drinking water twice at morning and evening with meals for 12 weeks. At the time of screening hospital visit (visit1), visit2 and final visit (visit5), FBS, Insulin, and HbAlc test was conducted for the collected blood. After calculating the average change of the glucose index (FBS, Insulin, HbAlc) after 12 weeks compared to the base time, technical statistics (mean, standard deviation, median value, minimum value, maximum value) were obtained. The comparative statistic test for the three groups was performed using ANOVA or Kruscal-Wallis test by testing whether data were normally distributed. When there was a significant difference between the three groups, the multiple comparisons were conducted through Tukey-Kramer method. In order to find out whether there was a difference in the mean change in a group, it was analyzed using Paired t-test or Wilcoxon's signed rank test.

[6] = Body fat and lean body mass measured by DXA, 12-week human application test; format: in vivo; details: for Lean, 12 W, Mean / Fat, Difference (average change at 12 weeks compared to base time) / Lean, Difference (12 W vs baseline): ITT 33; for Fat, 12 W, Mean: ITT 33 overweight/obese adults
Procedure: After conducting a screening test for those who heard the detailed description of the purpose and research method of the present example and agreed in writing as subjects, those who met the selection/exclusion criteria were selected. The specific selection criteria are as follows, and the final selected subjects are 99 men and women who are overweight or obese, and the demographic information of the selected subjects is shown in the following Table 1. The efficacy test was performed by dividing 99 selected test subjects into 3 groups, and by providing three products to the high-dose group (33 people), low-dose group (33 people), and control group (33 people), respectively. The allulose high-dose product was provided to the high-dose test group, and the allulose low-dose product was provided to the low-dose test group, and placebo product was provided to the control group. Ninety nine (99) subjects were randomly assigned to the high-dose group, low-dose group or control group, with including 33 subjects in each test group. In three test groups, the products were mixed in 100 ml of water and were administered orally twice a day. As the daily dose for one test subject, 12 g allulose in the high-dose group, 6 g allulose and 6 g anhydrous glucose in the low-dose group, and 12 g anhydrous glucose in the control group were divided and provided twice a day. It was administered from the day after the random assignment day (0 day), and was taken with drinking water twice at morning and evening with meals for 12 weeks. At the random assignment day (0 day), the efficacy evaluation items and safety evaluation items such as DXA measurement and the like were checked, and the evaluation items were also checked through hospital outpatient visit at 4 weeks, 8 weeks and 12 weeks from the day of beginning administration of test products. In addition, during the human application test, the usual physical activity of subjects was investigated using Korean version of International Physical Activity Questionnaire (IPAQ). During the human application test period, the subjects were trained to maintain the activity amount being similar to normal physical activity. At each hospital outpatient visit, the amount of meal intake was examined by the recording board made by the subjects. The subjects were trained to maintain the amount of meal intake being similar to the usual amount with avoiding overeating condition. At the time of second hospital visit (visit 2) and final hospital visit (visit 5), the body fat ratio and body fat were measured using prodigy DXA of U.S. Lunar Company. For the body fat measured by DXA, after calculating the change of the body fat after 12 weeks compared to the base time, technical statistics (mean, standard deviation, median value, minimum value, maximum value) were obtained. The comparative statistic test for the three groups was performed using ANOVA or Kruscal-Wallis test by testing whether data were normally distributed. When there was a significant difference between the three groups, the multiple comparison was conducted through Tukey-Kramer method. In order to find out whether there was a difference in the mean change in a group, it was analyzed using Paired t-test or Wilcoxon's signed rank test.

[7] = high-dose group: allulose 12 g/d oral
[8] = high-dose group: allulose 12 g/d, statistically significant before/after
[9] = low-dose group: allulose 6 g/d + anhydrous glucose 6 g/d oral
[10] = low-dose group: allulose 6 g/d + glucose 6 g/d, statistically significant before/after
[11] = high-dose group: allulose 12 g/d oral, N 33
[12] = low-dose group: allulose 6 g/d + anhydrous glucose 6 g/d oral, N 32
[13] = high-dose group: allulose 12 g/d oral, 12 weeks
[14] = low-dose group: allulose 6 g/d + anhydrous glucose 6 g/d oral, 12 weeks

## O=C(CO)C(O)C(O)C(O)CO (stereo not shown) [allulose]
[1]; [7]
  ALT(SGPT), Mean: 22.21 U/L
  ALT(SGPT), Median: 16.00 U/L
  AST(SGOT), Mean: 18.76 U/L
  AST(SGOT), Median: 18.00 U/L
  Alkaline phosphatase, Mean: 183.21 U/L
  Alkaline phosphatase, Median: 169.00 U/L
  γ-GTP, Mean: 18.18 U/L
  γ-GTP, Median: 14.00 U/L
[1]; [8]
  ALT, change at 12 weeks compared to the base time: reduced
  Alkaline phosphatase, change at 12 weeks compared to the base time: reduced
  γ-GTP, change at 12 weeks compared to the base time: reduced
[1]; [9]
  ALT(SGPT), Mean: 26.88 U/L
  ALT(SGPT), Median: 19.00 U/L
  AST(SGOT), Mean: 22.64 U/L
  AST(SGOT), Median: 18.00 U/L
  Alkaline phosphatase, Mean: 178.97 U/L
  Alkaline phosphatase, Median: 170.00 U/L
  γ-GTP, Mean: 33.58 U/L
  γ-GTP, Median: 19.00 U/L
[1]; low-dose group: allulose 6 g/d + glucose 6 g/d
  ALT, change at 12 weeks compared to the base time: reduced
[1]; [10]
  Alkaline phosphatase, change at 12 weeks compared to the base time: reduced
  γ-GTP, change at 12 weeks compared to the base time: reduced
[2]; [7]
  Liver HU Mean, 12 W, Mean: 57.49 HU
  Liver HU Mean, Difference (12 W vs base line): −0.78 ± 5.60 HU
[2]; [11]
  Liver - Spleen HU (Liver minus Spleen), 12 W, Mean: 7.19 HU
  Spleen HU Mean, 12 W, Mean: 50.30 HU
  Liver - Spleen HU, Difference (12 W vs base line): −1.28 ± 5.36 HU
  Spleen HU Mean, Difference (12 W vs base line): 0.50 ± 2.77 HU
[2]; [9]
  Liver HU Mean, 12 W, Mean: 55.17 HU
  Liver HU Mean, Difference (12 W vs base line): −0.69 ± 5.17 HU
[2]; [12]
  Liver - Spleen HU (Liver minus Spleen), 12 W, Mean: 4.75 HU
  Spleen HU Mean, 12 W, Mean: 50.66 HU
  Liver - Spleen HU, Difference (12 W vs base line): −0.55 ± 5.43 HU
  Spleen HU Mean, Difference (12 W vs base line): −0.41 ± 2.34 HU
[3]
  normality of the urine test: no clinically significant abnormal subject
[4]
  diastolic blood pressure and pulse rate: did not showed statistically significant difference between three groups
[5]; high- and low-dose groups, 12 weeks, subjects with normal blood sugar
  hypoglycemic effect (Glucose, Insulin, HbA1c): no hypoglycemic effect
[5]; [13]
  Glucose, 12 W, Mean: 94.58 mg/dL
  Glucose, 12 W, Median: 94.00 mg/dL
  HbA1, 12 W, Mean: 5.66%
  HbA1, 12 W, Median: 5.6%
  Insulin, 12 W, Mean: 8.7 µIU/mL
  Insulin, 12 W, Median: 7.5 µIU/mL
[5]; [7]
  Glucose, Difference (12 W vs baseline): -0.12 ± 8.35 mg/dL
  Insulin, Difference (12 W vs baseline): 1.75 ± 5.33 µIU/mL
[5]; [14]
  Glucose, 12 W, Mean: 97.18 mg/dL
  Glucose, 12 W, Median: 97.00 mg/dL
  HbA1, 12 W, Mean: 5.64%
  HbA1, 12 W, Median: 5.6%
  Insulin, 12 W, Mean: 9.18 µIU/mL
  Insulin, 12 W, Median: 7.1 µIU/mL
[5]; [9]
  Glucose, Difference (12 W vs baseline): 2.42 ± 10.10 mg/dL
  Insulin, Difference (12 W vs baseline): 1.27 ± 5.15 µIU/mL
[6]; allulose administration groups, 12 weeks, control reduced by 0.61 kg
  lean body mass before and after administration: did not show a difference before and after administration
[6]; allulose low-dose group and high-dose group, 12 weeks
  body fat before and after administration: slightly increased, but there was no statistically significant difference before and after administration
[6]; conclusion from analysis of body components, 12 weeks
  body fat accumulation and muscle mass reduction: inhibited
[6]; [13]
  Lean, 12 W, Mean: 40.24 kg
  Fat, 12 W, Mean: 26.31 kg
[6]; [7]
  Fat, Difference (average change at 12 weeks compared to base time): 0.25 ± 1.34 kg
  Lean, Difference (12 W vs baseline): -0.22 ± 1.08 kg
[6]; [14]
  Lean, 12 W, Mean: 42.26 kg
  Fat, 12 W, Mean: 26.80 kg
[6]; [9]
  Fat, Difference (average change at 12 weeks compared to base time): 0.16 ± 0.91 kg
  Lean, Difference (12 W vs baseline): 0.05 ± 0.89 kg
